Assay results published in patent publication US20230414701A1, “COMPOSITION FOR PREVENTING, AMELIORATING, OR TREATING COGNITIVE DYSFUNCTION DISEASE, COMPRISING PEPTIDE HAVING SYNAPTIC PLASTICITY CONTROL FUNCTION” (UIF (University Industry Foundation), Yonsei University, priority 2020, published 2023).

Key:
CCNY protein = CCNY protein (Homo sapiens, UniProt Q8ND76); test: ELISA of binding capacity of peptides to CCNY; conditions: treated at 10, 100 or 1000 μg/mL; CCNY immobilized on plate; FIG. 5
Chain of CCNY protein (Q8ND76 whole entry, species assumed): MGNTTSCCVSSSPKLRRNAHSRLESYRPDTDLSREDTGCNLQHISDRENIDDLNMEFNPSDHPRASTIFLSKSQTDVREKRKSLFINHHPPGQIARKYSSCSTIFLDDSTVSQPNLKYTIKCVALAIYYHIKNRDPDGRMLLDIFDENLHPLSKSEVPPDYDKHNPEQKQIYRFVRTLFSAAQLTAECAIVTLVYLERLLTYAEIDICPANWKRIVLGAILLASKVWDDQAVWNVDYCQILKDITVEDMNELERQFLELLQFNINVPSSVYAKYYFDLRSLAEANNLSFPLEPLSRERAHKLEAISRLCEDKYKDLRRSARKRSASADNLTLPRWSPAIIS
Method: To examine which of MIC-1 and cyclo MIC-1 according to the present invention easily binds to CCNY, the present inventors conducted an experiment using ELISA. To this end, CCNY was immobilized on a plate, MIC-1 and cyclo MIC-1 were treated at 10, 100 or 1000μg/mL, biotin was bound to the MIC-1 and cyclo MIC-1, and then the optical density of HRP was measured after treating streptavidin-HRP.

ICR mouse models = test: Y-maze behavioral experiment, scopolamine-induced memory loss; assay type: in vivo; conditions: 20 mpK intravenous twice for one week, then scopolamine 1 mpK i.p. 30 minutes before test; 7-week-old male ICR mice; FIG. 8
Method: In Example 6-1, it was confirmed that MIC-1 can enhance the expression level of the PSD-95 protein known to be associated with cognitive function, and based on this, a behavioral experiment for mouse models was designed. Specifically, among ICR mouse models, 7-week-old male mouse models were used and divided into a control and two experimental groups (scopolamine-treated group and group administered MIC-1 and then treated with scopolamine) to perform the experiment.
MIC-1 was administered into a mouse twice via intravenous administration at 20 mpK for one week. […] Therefore, to induce such memory loss, 30 minutes before the Y-maze behavioral experiment, scopolamine was intraperitoneally administered at 1 mpK to the experimental groups, resulting in memory deterioration.

PSD-95 protein = test: Western blotting of PSD-95 protein expression in Aβ42-treated cells; assay type: cell-based; conditions: FIG. 7
Method: To identify what role MIC-1 plays in improving the cognitive function of MIC-1 according to the present invention, the present inventors, as shown in Example 5, an experiment was performed as follows. Specifically, the change in expression level of the PSD-95 protein known to play an important role in cognitive function was analyzed through Western blotting using a 12% acrylamide gel. For example, it is known that, when cells are treated with Aβ42, compared to normal cells, the amount of PSD-95 protein decreases and cognitive function decreases, resulting in deterioration of memory.

[1] = system: hippocampal tissue section from APP/PS1 Alzheimer's disease animal model; test: fEPSP amplitude (long-term potentiation) in hippocampal tissue sections; set-up: species or system mouse; conditions: 1 μM, 1 hour and 40 minutes, compared to control peptide material; FIG. 6
Method: Specifically, the brain was extracted from an APP/PS1 Alzheimer's disease animal model, and then transferred to a 4° C. sucrose-artificial cerebrospinal fluid solution (195.5 sucrose, 2.5 KC1, 1 NaH2PO4, 32.5 NaHCO3, 11 glucose, 2 NaPyruvate, 1 NaL-ascorbate, 5 MgSO4, 0.5 CaCl2 (95% O2/5% CO2). Subsequently, brain tissue was cut into coronal sections (400 μm) using a microtome, a hippocampal tissue section was transferred to a 35° C. artificial cerebrospinal fluid solution (128.5 NaCl2, 2.5 KCl, 1 NaH2PO4, 21.7 NaHCO3, 11 glucose, 2 NaPyruvate, 1 NaL-ascorbate, 5 MgSO4, 1 CaCl2 (95% O2/5% CO2)) and incubated for 30 minutes to restore the function of the tissue. Subsequently, an experiment was performed for 1 hour and 40 minutes while flowing MIC-1 according to the present invention at a concentration of 1 μM from the beginning until the end of the experiment using gravity, and then the amplitude of field excitatory postsynaptic potential (fEPSP) was measured.

MIC-1: Peptide of SEQ ID NO: 1 (PFTAIRE sequence of Cdk14) in which both termini are modified (Ac-PFTAIRE-NH2)
binding to the CCNY protein (ELISA, optical density of HRP) (CCNY protein): can remarkably bind to the CCNY protein
alternation (memory) in Y-maze (ICR mouse models): the memory is improved up to the control level
level of the PSD-95 protein (PSD-95 protein): the level of the PSD-95 protein is increased
fEPSP amplitude [1]: the fEPSP amplitude increases
